In patent US20240327351A1, “AMIDE AND ETHER SUBSTITUTED N-(1H-INDOL-7-YL)BENZENESULFONAMIDES AND USES THEREOF” (TRIANA BIOMEDICINES, INC., priority 2021, published 2024):

How the values were obtained:
[1] = biological target: DCAF15/RBM39 (Homo sapiens, UniProt Q14498+Q66K64); assay: AlphaLISA compound-induced DCAF15-RBM39 ternary complex formation; format: binding; conditions: His-tagged DCAF15 complex and biotin-carrying RBM39
Procedure: Example 6: Quantitative Evaluation of Compound-Induced Ternary Complex Formation Using Amplified Luminescent Proximity Homogeneous Assay
Compound-induced DCAF15-RBM39 ternary complex formation was monitored using AlphaLISA® assays (Perkin Elmer, Waltham, MA). Test compounds were first collected in a 384-well microplate (cat. #781280, Grenier Bio-One, Monroe, NC) as 2 mM stocks in 100% dimethyl sulfoxide (DMSO). These stocks were then serially diluted in DMSO by 3-fold into a new plate (cat. #781280, Grenier Bio-One, Monroe, NC) using a Mosquito HTS dispenser (mosquito@ HTS, SPT Labtech, Boston, MA). 0.2 ul of these diluted stocks were then dispensed into a 384-well Optiplate (cat. #6007290, Perkin Elmer, Waltham, MA) in duplicate wells, to assemble the final assay plate consisting of duplicated dose ranges. Separately, a protein mixture consisting of His-tagged DCAF15 complex and biotin-carrying RBM39, each at 408 nM (2.04×), was prepared in 50 mM HEPES, pH 7.5, 100 mM NaCl, 2 mM MgCl2, 0.1% BSA, 2 mM TCEP, 0.05% Tween-20 (dilution buffer). 9.8 ul of this protein mixture was then mixed with the compounds in the assay plate and incubated for one hour at room temperature. Reaction mixtures with no compounds added were included as negative controls, while a His-tagged and biotinylated GST protein was included to track general assay performance. Nickel Chelate AlphaLISA Acceptor beads (cat. #AL108M, Perkin Elmer, MA) and AlphaScreen Streptavidin Donor beads (cat. #6760002, Perkin Elmer, Waltham, MA) were prepared separately in the dilution buffer as 4× stocks (80 ug/ml). The beads were then added to the assay plate sequentially with incubation at room temperature for 1-2 hours after each addition. Signals were recorded using EnVision 2104 Multilabel Plate Reader (Perkin Elmer, Waltham, MA) and titration curves were generated in GraphPad Prism (7.00, GraphPad, La Jolla, CA).

[2] = biological target: DCAF15 (Homo sapiens, UniProt Q66K64); assay: HTRF competition assay, binary interaction between compounds and DCAF15; format: binding; conditions: competition with Alexa Fluor 647 tracer, His-tagged DCAF15 complex
Procedure: Example 7: Measurement of Binary Interaction Between Compounds And DCAF15 Using Homogeneous Time Resolved Fluorescence (HTRF)
DCAF15 interactions with test compounds were monitored using HTRF competition assays (Cisbio, Bedford, MA). Test compounds were first collected in a 384-well microplate (cat. #781280, Grenier Bio-One, Monroe, NC) as 10 mM stocks in 100% dimethyl sulfoxide (DMSO). A second stock plate (cat. #781280, Grenier Bio-One, Monroe, NC) was prepared through 3-fold serial dilution in DMSO of the afore-mentioned stocks using a Mosquito HTS dispenser (mosquito@ HTS, SPT Labtech, Boston, MA). 0.2 ul of these diluted stocks were then dispensed into a 384-well Optiplate (cat. #6007290, Perkin Elmer, Waltham, MA) in duplicate wells, to assemble the assay plate. The tracer molecule containing an Alexa Fluor 647 probe was prepared in 25 mM HEPES pH 7.5, 100 mM NaCl, 0.1 mg/ml BSA, 0.005% Tween 20, 0.5 mM TCEP (dilution buffer) to 612 nM (2.04×). Separately, His-tagged DCAF15 complex was prepared at 32 nM (4×) in the dilution buffer, and mAb Anti-6His-Eu cryptate Gold (cat. #61H12KLA, Cisbio, Bedford, MA) at 4× dilution in the detection buffer (cat. #61 DB9RDF, Cisbio, Bedford, MA). These two solutions were mixed and incubated for 15 min at room temperature. 9.8 ul of the tracer solution and 10 ul of the DCAF15/mAb Anti-6His-Eu cryptate Gold mixture were added sequentially to each well in the assay plate. Reaction mixtures with no DCAF15 added were included as positive controls. The final mixture was incubated for an hour at room temperature and spun down briefly before data collection at 615 nm and 666 nm using En Vision 2104 Multilabel Plate Reader (Perkin Elmer, Bedford, MA). Binding was estimated based on ratiometric analysis and titration curves were generated in GraphPad Prism (7.00, GraphPad, La Jolla, CA).

| Compound | EC50 [1] | IC50 [2] |
| --- | --- | --- |
| NCCc1ccc(COc2cccc(S(=O)(=O)Nc3ccc(Cl)c4c(Cl)c[nH]c34)c2)cc1 [Compound 59] | 1 to 10 µM | 10 to 100 µM |
| NCCc1ccc(COc2ccc(S(=O)(=O)Nc3ccc(Cl)c4c(Cl)c[nH]c34)cc2)cc1 [Compound 60] | 1 to 10 µM | 1 to 10 µM |
| Cc1nc(-c2ccc(COc3cccc(S(=O)(=O)Nc4ccc(Cl)c5c(Cl)c[nH]c45)c3)cc2)no1 [Compound 63] | 1 to 10 µM | > 100 µM |
| Cc1nc(-c2ccc(COc3ccc(S(=O)(=O)Nc4ccc(Cl)c5c(Cl)c[nH]c45)cc3)cc2)no1 [Compound 64] | > 100 µM | > 100 µM |
| O=S(=O)(Nc1ccc(Cl)c2c(Cl)c[nH]c12)c1cccc(OCc2ccc3c(c2)CNC3)c1 [Compound 65] | < 1 µM | > 100 µM |
| O=S(=O)(Nc1ccc(Cl)c2c(Cl)c[nH]c12)c1ccc(OCc2ccc3c(c2)CNC3)cc1 [Compound 66] | < 1 µM | 1 to 10 µM |
| Cn1ncnc1COc1ccc(S(=O)(=O)Nc2ccc(Cl)c3c(Cl)c[nH]c23)cc1 [Compound 67] | < 1 µM | 1 to 10 µM |
| Cn1nnc2cc(COc3ccc(S(=O)(=O)Nc4ccc(Cl)c5c(Cl)c[nH]c45)cc3)ccc21 [Compound 68] | < 1 µM | > 100 µM |
| CC1(CCOc2cccc(S(=O)(=O)Nc3ccc(Cl)c4c(Cl)c[nH]c34)c2)CCNCC1 [Compound 74] | < 1 µM | 10 to 100 µM |
| CC1(CCOc2ccc(S(=O)(=O)Nc3ccc(Cl)c4c(Cl)c[nH]c34)cc2)CCNCC1 [Compound 75] | < 1 µM | 1 to 10 µM |
| CS(=O)(=O)c1ccc(CCOc2cccc(S(=O)(=O)Nc3ccc(Cl)c4c(Cl)c[nH]c34)c2)cc1 [Compound 76] | 1 to 10 µM | > 100 µM |
| CS(=O)(=O)c1ccc(CCOc2ccc(S(=O)(=O)Nc3ccc(Cl)c4c(Cl)c[nH]c34)cc2)cc1 [Compound 77] | 1 to 10 µM | > 100 µM |
| Cn1cc(CCOc2cccc(S(=O)(=O)Nc3ccc(Cl)c4c(Cl)c[nH]c34)c2)c2ccccc21 [Compound 92] | 10 to 100 µM | > 100 µM |
| Cn1cc(CCOc2ccc(S(=O)(=O)Nc3ccc(Cl)c4c(Cl)c[nH]c34)cc2)c2ccccc21 [Compound 93] | > 100 µM | > 100 µM |
| O=S(=O)(Nc1ccc(Cl)c2c(Cl)c[nH]c12)c1cccc(OCCC[C@@H]2CCCN2)c1 [Compound 96] | < 1 µM | > 100 µM |
| O=S(=O)(Nc1ccc(Cl)c2c(Cl)c[nH]c12)c1ccc(OCCC[C@@H]2CCCN2)cc1 [Compound 97] | < 1 µM | 1 to 10 µM |
| O=S(=O)(Nc1ccc(Cl)c2c(Cl)c[nH]c12)c1cccc(OCCCC2CCNCC2)c1 [Compound 98] | 1 to 10 µM | 10 to 100 µM |
| O=S(=O)(Nc1ccc(Cl)c2c(Cl)c[nH]c12)c1ccc(OCCCC2CCNCC2)cc1 [Compound 99] | < 1 µM | 1 to 10 µM |
| CCc1cnc(N2CCC(CCCOc3cccc(S(=O)(=O)Nc4ccc(Cl)c5c(Cl)c[nH]c45)c3)CC2)nc1 [Compound 100] | > 100 µM | > 100 µM |
| CN1CCN(CCCOc2cccc(S(=O)(=O)Nc3ccc(Cl)c4c(Cl)c[nH]c34)c2)CC1 [Compound 104] | < 1 µM | 10 to 100 µM |
| O=S(=O)(Nc1ccc(Cl)c2c(Cl)c[nH]c12)c1cccc(OCCCN2CC3(COC3)C2)c1 [Compound 108] | < 1 µM | > 100 µM |
| O=S(=O)(Nc1ccc(Cl)c2c(Cl)c[nH]c12)c1ccc(OCCCc2ccc3c(c2)OCO3)cc1 [Compound 110] | > 100 µM | > 100 µM |

| Compound | EC50 [1] | IC50 [2] |
| --- | --- | --- |
| O=S(=O)(Nc1ccc(Cl)c2c(Cl)c[nH]c12)c1cccc(OCCCc2ccc3c(c2)OCO3)c1 [Compound 111] | > 100 µM | > 100 µM |
| O=c1oc2ccccc2n1CCCOc1cccc(S(=O)(=O)Nc2ccc(Cl)c3c(Cl)c[nH]c23)c1 [Compound 112] | 1 to 10 µM | > 100 µM |
| O=c1oc2ccccc2n1CCCOc1ccc(S(=O)(=O)Nc2ccc(Cl)c3c(Cl)c[nH]c23)cc1 [Compound 113] | 1 to 10 µM | > 100 µM |
| O=S(=O)(Nc1ccc(Cl)c2c(Cl)c[nH]c12)c1cccc(OCCCN2CCCc3ccccc32)c1 [Compound 114] | 1 to 10 µM | > 100 µM |
| O=S(=O)(Nc1ccc(Cl)c2c(Cl)c[nH]c12)c1ccc(OCCCCc2ccccn2)cc1 [Compound 140] | 1 to 10 µM | 1 to 10 µM |
| CNCCCCCOc1ccc(S(=O)(=O)Nc2ccc(Cl)c3c(Cl)c[nH]c23)cc1 [Compound 144] | < 1 µM | 1 to 10 µM |
| CNCCCCCCOc1ccc(S(=O)(=O)Nc2ccc(Cl)c3c(Cl)c[nH]c23)cc1 [Compound 148] | < 1 µM | 1 to 10 µM |
| O=C(N[C@H]1CCc2ccccc21)c1ccc(S(=O)(=O)Nc2ccc(Cl)c3c(Cl)c[nH]c23)c(F)c1 [Compound 155] | > 100 µM | > 100 µM |
| O=C1CC[C@H](NC(=O)c2cccc(S(=O)(=O)Nc3ccc(Cl)c4c(Cl)c[nH]c34)c2F)CN1 [Compound 156] | < 1 µM | 1 to 10 µM |
| O=C1CC[C@H](NC(=O)c2ccc(S(=O)(=O)Nc3ccc(Cl)c4c(Cl)c[nH]c34)c(F)c2)CN1 [Compound 157] | < 1 µM | < 1 µM |
| CN1C[C@@H](NC(=O)c2cccc(S(=O)(=O)Nc3ccc(Cl)c4c(Cl)c[nH]c34)c2F)CCC1=O [Compound 158] | < 1 µM | < 1 µM |
| CN1C[C@@H](NC(=O)c2ccc(S(=O)(=O)Nc3ccc(Cl)c4c(Cl)c[nH]c34)c(F)c2)CCC1=O [Compound 159] | < 1 µM | < 1 µM |
| O=C(N[C@H]1CCCCNC1=O)c1cccc(S(=O)(=O)Nc2ccc(Cl)c3c(Cl)c[nH]c23)c1F [Compound 160] | < 1 µM | < 1 µM |
| O=C(N[C@H]1CCCCNC1=O)c1ccc(S(=O)(=O)Nc2ccc(Cl)c3c(Cl)c[nH]c23)c(F)c1 [Compound 161] | < 1 µM | < 1 µM |
| CC(C)(C)OC(=O)NC1(CNC(=O)c2cccc(S(=O)(=O)Nc3ccc(Cl)c4c(Cl)c[nH]c34)c2F)CC1 [Compound 162] | 1 to 10 µM | 1 to 10 µM |
| CC(C)(C)OC(=O)NC1(CNC(=O)c2ccc(S(=O)(=O)Nc3ccc(Cl)c4c(Cl)c[nH]c34)c(F)c2)CC1 [Compound 163] | 1 to 10 µM | 1 to 10 µM |
| O=C(NC[C@H]1Cc2ccccc21)c1cccc(S(=O)(=O)Nc2ccc(Cl)c3c(Cl)c[nH]c23)c1F [Compound 164] | 1 to 10 µM | 1 to 10 µM |
| O=C(NC[C@H]1Cc2ccccc21)c1ccc(S(=O)(=O)Nc2ccc(Cl)c3c(Cl)c[nH]c23)c(F)c1 [Compound 165] | > 100 µM | > 100 µM |
| O=C(NCC1CCN(CCCc2ccccc2)CC1)c1cccc(S(=O)(=O)Nc2ccc(Cl)c3c(Cl)c[nH]c23)c1F [Compound 166] | < 1 µM | 1 to 10 µM |
| O=C(NCC1CCN(CCCc2ccccc2)CC1)c1ccc(S(=O)(=O)Nc2ccc(Cl)c3c(Cl)c[nH]c23)c(F)c1 [Compound 167] | < 1 µM | < 1 µM |
| CC(C)C(=O)Nc1cccc(CNC(=O)c2cccc(S(=O)(=O)Nc3ccc(Cl)c4c(Cl)c[nH]c34)c2F)c1 [Compound 168] | 1 to 10 µM | 1 to 10 µM |
| CC(C)C(=O)Nc1cccc(CNC(=O)c2ccc(S(=O)(=O)Nc3ccc(Cl)c4c(Cl)c[nH]c34)c(F)c2)c1 [Compound 169] | 1 to 10 µM | 1 to 10 µM |
